IC50 data for five compounds are collected here from patent publication US20260022142A1, “MACROCYCLIC IMMUNOMODULATORS” (Bristol-Myers Squibb Company, priority 2022, published 2026).

Bridge positions count the residues as written; N and C are the ends. Square brackets hold non-standard residues; d marks the D form. Peptide text beside a SMILES is read from it. * marks the point of attachment. Bip = N[C@@H](Cc1ccc(-c2ccccc2)cc1)C(=O)O; Phe(3-Me) = Cc1cccc(C[C@H](N)C(=O)O)c1; Val(3-OH) = CC(C)(O)[C@H](N)C(=O)O; Cha = N[C@@H](CC1CCCCC1)C(=O)O; Gly(cPr) = N[C@H](C(=O)O)C1CC1; Carboxymethyl = O=C(O)C*; Nle = CCCC[C@H](N)C(=O)O; Orn = NCCC[C@H](N)C(=O)O; Aun = NCCCCCCCCCCC(=O)O; Dab = NCC[C@H](N)C(=O)O

T1 sequence (Q15116 25-288): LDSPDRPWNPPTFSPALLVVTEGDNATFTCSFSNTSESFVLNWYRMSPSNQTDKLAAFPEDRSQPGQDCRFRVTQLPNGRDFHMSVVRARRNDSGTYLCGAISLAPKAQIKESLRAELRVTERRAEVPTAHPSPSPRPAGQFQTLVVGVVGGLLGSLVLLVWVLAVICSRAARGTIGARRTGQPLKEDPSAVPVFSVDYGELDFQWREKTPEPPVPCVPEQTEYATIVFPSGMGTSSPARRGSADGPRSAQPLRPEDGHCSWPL

This assay has as its target T1, PD-1/PD-L1 interaction (PE-labeled human PD-L1-Ig binding to Jurkat cell line over-expressing human PD-1) (Homo sapiens, UniProt Q15116).
T1 construct: expressed in transfected cells; host or cells: Jurkat
Nature of the assay: Jurkat-PD-1 Cell Binding High-Content Screening Assay (CBA). Conditions: Jurkat cell line over-expressing human PD-1; PE-labeled PD-L1-Ig 20 nM final; read-out: Jurkat hPD1-PDL1 IC50. The format is cell-based. In outline:
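Jurkat cells over-expressing human PD-1 (8×10^3 per well, DMEM/10% FCS) preincubated with compound 2 h at 37° C, then PE-labeled human PD-L1-Ig (20 nM final) added for 1 h. Cells fixed with paraformaldehyde, Hoechst-stained, and bound fluorescence quantified by high-content imaging.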
For `Cc1cccc(C[C@@H]2NC(=O)[C@H](CC(=O)O)NC(=O)[C@H](Cc3ccc(OCC(=O)O)cc3)NC(=O)[C@H]([C@@H](C)O)NC(=O)CSC[C@@H](C(=O)N[C@@H](CCN)C(=O)NCCCCCCCCCCC(=O)O)NC(=O)[C@H](CO)NC(=O)[C@H](C(C)(C)O)NC(=O)[C@H](CC3CCCCC3)NC(=O)[C@H](CCN)NC(=O)[C@@H](CC(C)C)NC(=O)[C@H](CCCN)NC(=O)[C@H](Cc3ccc(OCC(=O)O)cc3)NC(=O)[C@H](Cc3ccc(-c4ccccc4)cc3)NC(=O)[C@H](Cc3ccc(OCC(=O)O)cc3)NC2=O)c1` [Compound 2208] ({CH2CO}-TY(Carboxymethyl)D[Phe(3-Me)]Y(Carboxymethyl)[Bip]Y(Carboxymethyl)[Orn][dL][Dab][Cha][Val(3-OH)]SC[Dab][Aun]-OH; thioether N-14), the IC50 (in general, the concentration that gives 50% inhibition) was found to be 14 nM.
In the case of `Cc1cccc(C[C@@H]2NC(=O)[C@H](CC(=O)O)NC(=O)[C@H](Cc3ccc(OCC(=O)O)cc3)NC(=O)CNC(=O)CSC[C@@H](C(=O)N[C@@H](CCN)C(=O)NCCCCCCCCCCC(=O)O)NC(=O)[C@H](CO)NC(=O)[C@H](C(C)(C)O)NC(=O)[C@H](CC3CCCCC3)NC(=O)[C@H](CCN)NC(=O)[C@@H](CC(C)C)NC(=O)[C@H](CCCN)NC(=O)[C@H](Cc3ccc(OCC(=O)O)cc3)NC(=O)[C@H](Cc3ccc(-c4ccccc4)cc3)NC(=O)[C@H](Cc3ccc(OCC(=O)O)cc3)NC2=O)c1` [Compound 2209] ({CH2CO}-GY(Carboxymethyl)D[Phe(3-Me)]Y(Carboxymethyl)[Bip]Y(Carboxymethyl)[Orn][dL][Dab][Cha][Val(3-OH)]SC[Dab][Aun]-OH; thioether N-14), the concentration for half-maximal inhibition (IC50) was determined as 45.5 nM.
Then `CCCC[C@@H]1NC(=O)CSC[C@@H](C(=O)N[C@@H](CCN)C(=O)NCCCCCCCCCCC(=O)O)NC(=O)[C@H](CO)NC(=O)[C@H](C(C)(C)O)NC(=O)[C@H](CC2CCCCC2)NC(=O)[C@H](CCN)NC(=O)[C@@H](CC(C)C)NC(=O)[C@H](CCCN)NC(=O)[C@H](Cc2ccc(OCC(=O)O)cc2)NC(=O)[C@H](Cc2ccc(-c3ccccc3)cc2)NC(=O)[C@H](Cc2ccc(OCC(=O)O)cc2)NC(=O)[C@H](Cc2cccc(C)c2)NC(=O)[C@H](CC(=O)O)NC(=O)[C@H](Cc2ccc(OCC(=O)O)cc2)NC1=O` [Compound 2210] ({CH2CO}-[Nle]Y(Carboxymethyl)D[Phe(3-Me)]Y(Carboxymethyl)[Bip]Y(Carboxymethyl)[Orn][dL][Dab][Cha][Val(3-OH)]SC[Dab][Aun]-OH; thioether N-14), with 8.8 nM.
With `Cc1cccc(C[C@@H]2NC(=O)[C@H](CC(=O)O)NC(=O)[C@H](Cc3ccc(OCC(=O)O)cc3)NC(=O)[C@H](C3CC3)NC(=O)CSC[C@@H](C(=O)N[C@@H](CCN)C(=O)NCCCCCCCCCCC(=O)O)NC(=O)[C@H](CO)NC(=O)[C@H](C(C)(C)O)NC(=O)[C@H](CC3CCCCC3)NC(=O)[C@H](CCN)NC(=O)[C@@H](CC(C)C)NC(=O)[C@H](CCCN)NC(=O)[C@H](Cc3ccc(OCC(=O)O)cc3)NC(=O)[C@H](Cc3ccc(-c4ccccc4)cc3)NC(=O)[C@H](Cc3ccc(OCC(=O)O)cc3)NC2=O)c1` [Compound 2211] ({CH2CO}-[Gly(cPr)]Y(Carboxymethyl)D[Phe(3-Me)]Y(Carboxymethyl)[Bip]Y(Carboxymethyl)[Orn][dL][Dab][Cha][Val(3-OH)]SC[Dab][Aun]-OH; thioether N-14), the IC50 is 9 nM.
As to `Cc1cccc(C[C@@H]2NC(=O)[C@H](CC(=O)O)NC(=O)[C@H](Cc3ccc(OCC(=O)O)cc3)NC(=O)[C@H](CCCN)NC(=O)CSC[C@@H](C(=O)N[C@@H](CCN)C(=O)NCCCCCCCCCCC(=O)O)NC(=O)[C@H](CO)NC(=O)[C@H](C(C)(C)O)NC(=O)[C@H](CC3CCCCC3)NC(=O)[C@H](CCN)NC(=O)[C@@H](CC(C)C)NC(=O)[C@H](CCCN)NC(=O)[C@H](Cc3ccc(OCC(=O)O)cc3)NC(=O)[C@H](Cc3ccc(-c4ccccc4)cc3)NC(=O)[C@H](Cc3ccc(OCC(=O)O)cc3)NC2=O)c1` [Compound 2212] ({CH2CO}-[Orn]Y(Carboxymethyl)D[Phe(3-Me)]Y(Carboxymethyl)[Bip]Y(Carboxymethyl)[Orn][dL][Dab][Cha][Val(3-OH)]SC[Dab][Aun]-OH; thioether N-14), the half-maximal inhibitory concentration (IC50) was 10 nM.
